Assay results published in ChEMBL document CHEMBL2095176, “GSK Tuberculosis Screening Data”.
In brackets after ≈: the same amount, converted by molar mass.

Tested on: Mycobacterium tuberculosis variant bovis BCG
Assay: microbe, parasite or virus in culture
Assay type: functional

| Compound | MIC90 [µM] |
| --- | --- |
| COc1ccc(-c2cc(C(=O)NC3CCCCNC3=O)n3nc(C(C)(C)C)cc3n2)cc1 (stereo unspecified) | 3.7 (≈ 1.61 µg/mL) |
| Cc1cc(=O)[nH]c(-n2nc(C)cc2NC(=O)C2(c3ccc(Cl)cc3)CCCC2)n1 | 1.3 (≈ 0.535 µg/mL) |
| Fc1ccc2[nH]c(-c3cccc(-c4ccc(CNCCN5CCNCC5)cc4)c3)nc2c1 | 6.7 (≈ 2.88 µg/mL) |
| CN(C)c1ccc(NC(=O)Nc2cccc3ncccc23)cc1 | 9.8 (≈ 3 µg/mL) |
| CC1CC(NC(=O)c2ccc(Oc3ccccc3)cc2)CC(C)(C)C1 (stereo unspecified) | 9.5 (≈ 3.21 µg/mL) |
| NCCCOc1cccc2c(-c3ccncc3)c(-c3cccc(NC(=O)Nc4ccccc4)c3)nn12 | 7.1 (≈ 3.4 µg/mL) |
| O=C(NNC(=O)c1cccs1)c1ccc(-c2cccc(C(F)(F)F)c2)o1 | 4.3 (≈ 1.64 µg/mL) |
| CNc1nc(SC)nc2ccccc12 | 0.3 (≈ 0.0616 µg/mL) |
| O=C(Nc1nnc(-c2ccc(Cl)s2)o1)c1ccc(S(=O)(=O)N2CCCCC2)cc1 | 7.3 (≈ 3.31 µg/mL) |
| O=C(Nc1nc(-c2ccccn2)cs1)c1ccco1 | 4.5 (≈ 1.22 µg/mL) |
| CCS(=O)(=O)c1cccc(C(=O)Nc2nc(-c3ccccn3)cs2)c1 | 5.2 (≈ 1.94 µg/mL) |
| Cn1cc(NC(=O)c2cc(NC(=O)CNC(=N)N)cn2C)cc1C(=O)NCCC(=N)N [NETROPSIN CHLORIDE] | 3.6 |
| O=C(CSc1nc(-c2ccccc2)cs1)NNC(=O)c1cccs1 | 9.8 (≈ 3.68 µg/mL) |
| O=C(COc1ccc2c(c1)CCC2)NNC(=O)c1cccs1 | 4.2 (≈ 1.33 µg/mL) |
| CCCc1cc(=O)[nH]c(-n2nc(C)cc2NC(=O)c2cc3ccccc3o2)n1 | 1.4 (≈ 0.528 µg/mL) |
| O=C(NCc1ccc(Oc2ccccc2)cc1)c1c(C(F)(F)F)nc2ccccn12 | 0.2 (≈ 0.0823 µg/mL) |
| Cc1cc(C)n(-c2nc(C)c(Br)c(N(C)CCO)n2)n1 | 4.7 (≈ 1.6 µg/mL) |
| O=C(c1ccccc1)N1CCN(c2ccccc2NC(=O)C(Cl)(Cl)Cl)CC1 | 1 (≈ 0.427 µg/mL) |
| O=C(NNC(=O)c1ccc([N+](=O)[O-])o1)c1ccc2ccccc2c1 | 7.2 (≈ 2.34 µg/mL) |

| Compound | MIC90 [µM] |
| --- | --- |
| O=C(CSc1ccc(Cl)cc1)NNC(=O)c1cccs1 | 4.8 (≈ 1.57 µg/mL) |
| Cc1ccc(SCCNC(=O)c2c(-c3ccccc3)noc2C)cc1 | 8.7 (≈ 3.07 µg/mL) |
| O=C(C=Cc1ccco1)N1CCN(Cc2ccc3c(c2)OCO3)CC1 | 7 (≈ 2.38 µg/mL) |
| Cc1ccc(SCCC(=O)Nc2nc(-c3ccccn3)cs2)cc1 | 4.4 (≈ 1.56 µg/mL) |
| CCOC(=O)c1c(-c2ccccc2)oc2ccc(O)c(CN3CCCCC3)c12 | 1.4 (≈ 0.531 µg/mL) |
| Cc1nc2ccccn2c1C(=O)NCc1ccc2c(c1)OCO2 | 3 (≈ 0.928 µg/mL) |
| O=C(Nc1nnc(-c2ccc3c(c2)CCCC3)o1)c1ccc(Cl)s1 | 3.8 (≈ 1.37 µg/mL) |
| O=C(Nc1ccccc1-c1nc(C2CCC2)cs1)OCC1CCNCC1.O=C(O)C(F)(F)F | 6.4 |
| O=C(C=Cc1ccccc1)N1CCN(Cc2ccc3c(c2)OCO3)CC1 | 2.9 (≈ 1.02 µg/mL) |
| CC(C)(C)c1ccc(-c2nnc(SCC(=O)OC3CCCCC3)o2)cc1 | 8.1 (≈ 3.03 µg/mL) |
| O=C(Nc1nnc(-c2ccc(Cl)cc2)o1)c1ccc(Cl)cc1 | 2.8 (≈ 0.936 µg/mL) |
| COCCNc1nc(N2CCCC2)c2c(c1C#N)CCN(C)C2 | 0.8 (≈ 0.252 µg/mL) |
| CCCSc1ncccc1C(=O)Nc1ccccc1Nc1ccccc1 | 0.8 (≈ 0.291 µg/mL) |
| CCn1c(-c2nonc2N)nc2c(-c3cccc(Cl)c3)ncc(OCCCNCCc3c[nH]cn3)c21 | 4.3 (≈ 2.18 µg/mL) |
| O=C1NN=C(c2ccc3c(c2)OCO3)N[C@H]1Cc1c[nH]c2ccccc12 | 6.2 (≈ 2.16 µg/mL) |
| CCOc1ccc(-c2nc(CNCCc3ccc(F)cc3)cs2)cc1.O=C(O)C(=O)O | 9.9 |
| FC(F)(F)c1cc(SCc2ccccc2)nc(-c2ccccn2)n1 | 7.1 (≈ 2.47 µg/mL) |
| COc1cc(C(C)(C)C)ccc1C(=O)Nc1cccc2c1CCC2N (stereo unspecified) | 2.7 (≈ 0.914 µg/mL) |
| Nc1ccc(C(=O)C(=O)c2ccc(N)cc2)cc1 | 0.4 (≈ 0.0961 µg/mL) |

| Compound | MIC90 [µM] |
| --- | --- |
| Cc1ccc(C)c(-c2nnc(NC(=O)c3ccc(Br)s3)o2)c1 | 1.6 (≈ 0.605 µg/mL) |
| CCN(CC)CCCn1c(Cc2ccccc2)nnc1Sc1ccnc(N2CCN(c3ccncc3)CC2)n1 | 2.9 (≈ 1.58 µg/mL) |
| Cc1ccc(Cl)c2sc(N(CCN(C)C)C(=O)c3cccc(S(C)(=O)=O)c3)nc12 | 4.2 (≈ 1.9 µg/mL) |
| CC(=O)Nc1ccc(S(=O)(=O)Nc2ccc(N3CCCCC3)cc2)cc1 | 5.2 (≈ 1.94 µg/mL) |
| O=C(CCCSc1ccccc1)NNC(=O)c1cccs1 | 3.6 (≈ 1.15 µg/mL) |
| Fc1cccc2sc(Nc3nc(-c4ccccn4)cs3)nc12 | 2.3 (≈ 0.755 µg/mL) |
| C=Cn1cccc1C(=O)N1CCCC(n2cnc3sc(C)c(CC)c3c2=O)C1 (stereo unspecified) | 7.3 (≈ 2.89 µg/mL) |
| Cc1ccc(-c2nnc(NC(=O)c3ccc(C#N)cc3)o2)cc1C | 3.7 (≈ 1.18 µg/mL) |
| CC(=O)N1CCN(Cc2ccc(-c3ccc(NS(=O)(=O)c4ccc(C)cc4)cc3)cc2)CC1 | 9.7 (≈ 4.5 µg/mL) |
| O=C(Nc1nnc(-c2ccc(Cl)s2)o1)c1ccc(Br)s1 | 3 (≈ 1.17 µg/mL) |
| Cc1cc(C)n(-c2nc(O)cc(-c3ccccc3)n2)n1 | 2 (≈ 0.533 µg/mL) |
| Nc1nonc1-c1nc2c(-c3ccccc3)nccc2n1C1CCNCC1 | 0.5 (≈ 0.181 µg/mL) |
| Cc1cc2nc(C)n(CCCOc3ccccc3)c2cc1C | 6.1 (≈ 1.8 µg/mL) |
| Cc1cc(CN2CCC3(CC2)OCCc2sccc23)oc1C | 2.1 (≈ 0.667 µg/mL) |
| O=C(Nc1nnc(-c2ccc(F)cc2)o1)c1ccc(C(F)(F)F)cc1 | 6 (≈ 2.11 µg/mL) |
| COc1cc(C(F)(F)F)nc2ccc(C)c(N)c12 | 9.7 (≈ 2.49 µg/mL) |
| c1ccc(-n2ncc3c(N4CCCNCC4)nc(C4CC4)nc32)cc1 | 4.1 (≈ 1.37 µg/mL) |
| COc1ccccc1N1CCN(c2cccc3c2nc(/C=C/c2ccncc2)n3C2CCNCC2)CC1 | 5.5 (≈ 2.72 µg/mL) |
